According to patent US20090305960A1, “Melanocortin Receptor-Specific Peptides for Treatment of Obesity / 669” (Palatin Technologies, Inc, priority 2008, published 2009):
Where a SMILES comes first, the peptide text is derived from it. Bridges are numbered along the chain shown (N, C = ends). [ ]: non-standard residue; d: D form. The star is where a group is joined. Orn = NCCC[C@H](N)C(=O)O; Bn = c1ccc(C*)cc1

Tests used:
[1] = Food intake and body weight change in rats; type: in vivo, rat; details: for decrease in food consumption compared to control: rats
Procedure: Change in food intake and body weight was evaluated for selected peptides administered by intravenous (IV) or subcutaneous injection routes. Male Sprague-Dawley rats were obtained from Hilltop Lab Animals, Inc. (Scottsdale, Pa.) or other vendors. Animals were individually housed in conventional polystyrene hanging cages and maintained on a controlled 12 hour on/off light cycle. Water and pelleted food was provided ad libitum. The rats were dosed IV with vehicle or selected peptides (0.3 to 1.0 mg/kg), or dosed subcutaneously with vehicle or selected peptides (doses up to 30 mg/kg). The changes in body weight and food intake for the 24 hour period after dosing was determined. The changes in body weight and food intake for the 48 hour and 72 hour periods after dosing can also be measured to determine reversal of changes in body weight and food intake effects back to baseline levels.

hMC4-R = molecular target: T1, hMC4-R (Homo sapiens, UniProt P32245); experiment: Competitive binding assay using Eu-NDP-α-MSH, MC4-R
T1 construct: expressed in transfected cells; host or cells: HEK-293 (membrane homogenates)
Procedure: Competitive inhibition binding assays were performed using membrane homogenates prepared from HEK-293 cells that express recombinant hMC1-R, hMC3-R, hMC4-R, or hMC5-R. In the examples that follow, all MC1-R, MC3-R, MC4-R and MC5-R values are for human recombinant receptors. Assays were performed in 96 well GF/B Millipore multiscreen filtration plates (MAFB NOB10) pre-coated with 0.5% bovine serum albumin (Fraction V). Membrane homogenates were incubated with 0.1 nM [1^125]-NDP-α-MSH (Perkin Elmer) and increasing concentrations of test peptides of the present invention in buffer containing 25 mM HEPES buffer (pH 7.5) with 100 mM NaCl, 2 mM CaCl2, 2 mM MgCl2, 0.3 mM 1,10-phenanthroline, and 0.1% bovine serum albumin. After incubation for 90 minutes at 37° C., the assay mixture was filtered and the membranes washed with 1 mL of cold 1×PBS wash buffer per well. 35 μL of scintillation cocktail was added to each well and the plates counted on a Microbeta counter for 1 minute per well. Non-specific binding was measured by inhibition of binding of [I^125]-NDP-α-MSH in the presence of 1 μM NDP-α-MSH. Maximal specific binding (100%) was defined as the difference in radioactivity (cpm) bound to cell membranes in the absence and presence of 1 μM NDP-α-MSH. Radioactivity (cpm) obtained in the presence of test compounds was normalized with respect to 100% specific binding to determine the percent inhibition of [I^125]-NDP-α-MSH binding. Each assay was conducted in duplicate and actual mean values are described, with results less than 0% reported as 0%. Ki values for test peptides of the present invention were determined using Graph-Pad Prism® curve-fitting software.
Alternatively, a competitive inhibition binding assay was performed employing Eu-NDP-α-MSH (PerkinElmer Life Sciences catalog No. AD0225) with determination by time-resolved fluorometry (TRF) of the lanthanide chelate. In comparison studies with [I^125]-NDP-α-MSH, the same values, within experimental error ranges, were obtained for percent inhibition and Ki. Typically competition experiments to determine Ki values were conducted by incubating membrane homogenates prepared from HEK-293 cells that express recombinant hMC4-R with 9 different concentrations of test compounds of interest and 1 nM of Eu-NDP-α-MSH in a solution containing 25 mM HEPES buffer with 100 mM NaCl, 2 mM CaCl2, 2 mM MgCl2, 0.1% BSA, and 0.3 mM 1,10-phenanthroline. After incubation for 90 minutes at 37° C., the reaction was stopped by filtration over AcroWell 96-well filter plates (Pall Life Sciences). The filter plates were washed 4 times with 200 μL of ice-cold phosphate-buffered saline. DELFIA Enhancement solution (PerkinElmer Life Sciences) was added to each well. The plates were incubated on a shaker for 15 minutes and read at 340 nm excitation and 615 nm emission wavelengths. Each assay was conducted in duplicate and mean values were utilized. Ki values were determined by curve-fitting with Graph-Pad Prism® software using a one-site fixed-slope competition binding model.

[2] = Induction of penile erection in male rats; type: in vivo, rat; details: IV
Procedure: The ability of peptides of the present invention to induce penile erection (PE) in male rats were evaluated with selected peptides. Male Sprague-Dawley rats weighing 250-300 g were kept on a 12 hour on/off light cycle with food and water ad libitum. All behavioral studies were performed between 9 a.m. and 4 p.m. Groups of 6-8 rats were administered peptides at a variety of doses via an IV route. Immediately after treatment, rats were placed into individual polystyrene cages (27 cm long, 16 cm wide, and 25 cm high) for behavioral observation, typically by remote video monitoring. Rats are observed for one hour, and the number of yawns, grooming bouts and PEs are recorded in 10-minute bins.

hMC1-R = molecular target: T2, hMC1-R (Homo sapiens, UniProt Q01726); experiment: Competitive binding assay, MC1-R; details: competitive studies using Eu-NDP-α-MSH / NDP-α-MSH
T2 construct: expressed in transfected cells; host or cells: HEK-293 (membrane homogenates)
Procedure: Competitive inhibition binding assays were performed using membrane homogenates prepared from HEK-293 cells that express recombinant hMC1-R, hMC3-R, hMC4-R, or hMC5-R. In the examples that follow, all MC1-R, MC3-R, MC4-R and MC5-R values are for human recombinant receptors. Assays were performed in 96 well GF/B Millipore multiscreen filtration plates (MAFB NOB10) pre-coated with 0.5% bovine serum albumin (Fraction V). […] 35 μL of scintillation cocktail was added to each well and the plates counted on a Microbeta counter for 1 minute per well. […] Maximal specific binding (100%) was defined as the difference in radioactivity (cpm) bound to cell membranes in the absence and presence of 1 μM NDP-α-MSH. […] Ki values for test peptides of the present invention were determined using Graph-Pad Prism® curve-fitting software.
Alternatively, a competitive inhibition binding assay was performed employing Eu-NDP-α-MSH (PerkinElmer Life Sciences catalog No. AD0225) with determination by time-resolved fluorometry (TRF) of the lanthanide chelate. […] The plates were incubated on a shaker for 15 minutes and read at 340 nm excitation and 615 nm emission wavelengths. […] Ki values were determined by curve-fitting with Graph-Pad Prism® software using a one-site fixed-slope competition binding model.

[3] = rat feeding studies, overall finding in words

T1 sequence (P32245 whole entry): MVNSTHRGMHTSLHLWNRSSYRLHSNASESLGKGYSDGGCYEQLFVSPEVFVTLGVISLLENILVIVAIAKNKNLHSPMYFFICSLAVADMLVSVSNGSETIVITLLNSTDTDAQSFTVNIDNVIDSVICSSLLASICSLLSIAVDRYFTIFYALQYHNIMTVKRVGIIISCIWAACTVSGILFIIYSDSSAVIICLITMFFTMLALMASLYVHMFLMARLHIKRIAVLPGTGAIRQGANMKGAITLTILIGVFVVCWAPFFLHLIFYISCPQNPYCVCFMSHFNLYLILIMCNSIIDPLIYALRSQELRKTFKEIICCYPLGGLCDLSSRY
T2 sequence (Q01726 whole entry): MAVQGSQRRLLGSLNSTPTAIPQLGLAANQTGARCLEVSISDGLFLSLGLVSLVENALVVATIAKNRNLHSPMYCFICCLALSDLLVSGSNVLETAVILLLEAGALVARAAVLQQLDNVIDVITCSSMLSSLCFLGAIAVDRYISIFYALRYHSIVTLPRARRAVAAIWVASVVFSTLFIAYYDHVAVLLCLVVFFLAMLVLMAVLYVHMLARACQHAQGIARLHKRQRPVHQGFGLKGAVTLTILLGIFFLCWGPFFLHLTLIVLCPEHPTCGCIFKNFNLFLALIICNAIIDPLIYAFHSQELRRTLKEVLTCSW

CC(=O)N[C@@H](CCCNC(=N)N)C(=O)N[C@H]1CCCNC(=O)CC[C@@H](C(=O)O)NC(=O)[C@H](Cc2c[nH]c3ccccc23)NC(=O)[C@H](CCCNC(=N)N)NC(=O)[C@@H](Cc2ccccc2)NC(=O)[C@H](COCc2ccccc2)NC1=O [Compound 7, Ac-Arg-cyclo(Orn-Ser(Bzl)-D-Phe-Arg-Trp-Glu)-OH] (Ac-R[Orn]S(Bn)[dF]RWE-OH; lactam 2-7)
food intake [1, 3]: reduce food intake | rate of change in body weight [1, 3]: decrease the rate of change in body weight | decrease in food consumption compared to control ([1]; 0.3 mg/kg, 0-2 hour period): statistically significant | decrease in food consumption compared to control ([1]; 0.3 mg/kg, 0-4 hour period): statistically significant | decrease in food consumption compared to control ([1]; 0.3 mg/kg, 0-20 hour period): statistically significant | decrease in food consumption compared to control ([1]; 1 mg/kg, 0-4 hour period): statistically significant | decrease in food consumption compared to control ([1]; 1 mg/kg, 0-20 hour period): statistically significant | decrease in food consumption compared to control ([1]; 1 mg/kg, 4-20 hour period): statistically significant | Ki (hMC4-R; competitive studies using Eu-NDP-α-MSH / NDP-α-MSH, average of several studies, read-out: Ki value at MC4-R): 0.009 µM | selectivity for MC4-R (binding against MC1-R, MC3-R and MC4-R) (hMC4-R; in words): highly selective for MC4-R | average spontaneous erections per rat in one hour ([2]; 1 mg/kg): 1.429±0.69 spontaneous erections per rat in one hour | increase in observed spontaneous erections ([2]; in words): not found to result in a statistically significant increase | Ki (hMC1-R): 2.04 µM
